Experimental data from patent US6337314B1, “Mammalian-derived peptides for the treatment of microbial infections” (Theragem, Inc., priority 1997, dated 2002).
Read-outs that look alike come from different tables or passages of the source. Marks after values point to notes of the source that are not given here. No end group written: not given here.

Legend:
Type in all cases: cell-based
Candida albicans = tested on: Candida albicans
Procedure: (§1) Staphylococcus aureus was strain RN6390, Pseudomonas aeruginosa was strain PA01, Escherichia coli was strain MC4100, Streptococcus faecalis was ATCC 8043 and Candida albicans was a clinical isolate from the Presbyterian Hospital.
B. Radial diffusion assay
The fungus is grown for 3 hrs from an overnight culture in Sabouraud dextrose broth, centrifuged at 10,000 g for 10 min, washed twice in NaPB pH 5.5, and resuspended in NaPB (pH 5.5) at a final concentration of 4×10^7/ml. A 0.1 ml aliquot of this fungal suspension (4×10^6 CFU) is added to 10 ml of autoclaved and cooled to (42° C.) NaPB pH 5.5 containing 1% w/v of low electroendosmosis type agarose (Sigma). After mixing the fungus in, the agar is poured into Lab-Tek square Petri dishes to form a uniform 1 mm thick layer. Wells with a 3 mm diameter are punched in and filled with 5 μl of control or sample, the plates are incubated for 3 hrs at 37° C. and overlaid with 10 ml of sterile agar maintained at 42° C. The overlay agar is 2× Sabouraud agar. After incubation of 18-24 hrs at 37° C., the diameter of the clear zone surrounding the wells containing an antifungal agent is measured.
(§2) Measurement of the antimicrobial activity of human hemoglobin, its heme-free α and β chains, CNBr-derived fragments of the α and β chains, and synthetic peptides derived therefrom were determined by radial diffusion assay and in some cases by plate assay. […] MIC is estimated by linear extrapolation of data points to an intercept with the x axis.
(§3) Each assay was performed with 3 experimental runs except where indicated. […] The assay method was patterned after that of Lee et al (23).

Escherichia coli MC4100 [1] = tested on: Escherichia coli MC4100
Source text: as §1
D. Radial diffusion assay for antibiotic activity against Escherichia coli MC4100
A single colony of Escherichia coli MC4100 is inoculated into trypicase soy broth and grown to mid-exponential phase (OD600−0.7). The cultures are washed in NaPB pH 5.5 and dissolved to a final concentration of 5×10^7CFU/ml. A 0.2 ml aliquot of this bacterial suspension (10^7CFU/ml) is added to 10 ml of autoclaved and cooled (to 42° C.) NaPB containing 0.02% Bovine Serum Albumin (BSA) and 0.02% Triton X100., 1% w/v of low electroendosmosis type agarose (Sigma). After mixing the bacteria in, the agarose is poured into Lab-Tek square Petri dishes to form a uniform thick layer. Wells with a 2.7 mm diameter are punched in and filled with 4.5 ul of control or sample, the plates are incubated for 3 hours at 37° C., and overlaid with 10 ml of sterile agar maintained at 42° C. The overlay agar is 6% (w/v) TSB and 1% w/v Bacto-agar. After incubation for 18-24 hours at 37° C., the diameter of the clear zone surrounding the wells containing an antibacterial agent is measured.
as §2, §3

[2] = tested on: Streptococcus faecalis ATCC 8043; assay: Radial diffusion assay for antibiotic activity against Streptococcus faecalis ATCC 8043
Procedure: as §1
E. Radial diffusion assay for antibiotic activity against Streptococcus faecalis ATCC 8043
A single colony is inoculated in 10 mL of TSB overnight shaking at 37C. Approximately 0.3 ml is added to 10 mL fresh TSB and shaken at 37° C. This is allowed to grow to mid-log phase (OD600=0.6). The culture is washed 2× in NaPB pH 5.5 by spinning at 5000 rpm. for 10 min. OD is rechecked after washing to determine exact bacterial concentration. The washed bacteria are added at a concentration of 10^7/plate to the lower layer (NaPB pH 5.5/1% Low Electroendosmosis agarose). Dilutions of Hemoglobin dilutions in NaPB pH 5.5 are added to the plate, allowed to diffuse in the layer, and incubated in wet box at 37C for 3 hours. Following the incubation, 10 mL of nutrient medium, 6% TSB and 1% Bactoagar, is added as a top layer and plates are incubated in the wet box overnight at […].
as §2
Each assay was performed with 3 experimental runs except where indicated. The radial diffusion assay is reliable and gives consistent results when used with the purified or semipurified compositions of the invention. The assay method was patterned after that of Lee et al (23).

[3] = tested on: Staphylococcus aureus RN6390; assay: Radial diffusion assay for antibiotic activity against Staphylococcus aureus RN6390; details: pH 5.5, radial diffusion
Source text: Staphylococcus aureus was strain RN6390, Pseudomonas aeruginosa was strain PA01, Escherichia coli was strain MC4100, Streptococcus faecalis was ATCC 8043 and Candida albicans was a clinical isolate from the Presbyterian Hospital. B. Radial diffusion assay for antibiotic activity against Staphylococcus aureus RN6390 A single colony of Staphylococcus aureus RN6390 is inoculated into CYGP broth and grown to mid-exponential phase (OD600=0.7). The cultures are washed in NaPB pH 5.5 and dissolved to a final concentration of 5×10^7 CFU/ml. A 0.2 ml aliquot of this bacterial suspension (10^7 CFU) is added to 10 ml of autoclaved and cooled (to 42° C.) NaPB buffer, 1% w/v of low electroendosmosis type agarose (Sigma). After mixing the bacteria in, the agarose is poured in Lab-Tek square Petri dishes to form a uniform thick layer. Wells with a 2.7 mm diameter are punched in and filled with 4.5 ul of control or sample, the plates are incubated for 3 hours at 37° C., and overlaid with 10 ml of sterile agar maintained at 42° C. The overlay agar is 2× CYGP broth and 1% w/v Bacto-agar. After incubation for 18-24 hours at 37° C., the diameter of the clear zone surrounding the wells containing an antibacterial agent is measured. Measurement of the antimicrobial activity of human hemoglobin, its heme-free α and β chains, CNBr-derived fragments of the α and β chains, and synthetic peptides derived therefrom were determined by radial diffusion assay and in some cases by plate assay. […] MIC is estimated by linear extrapolation of data points to an intercept with the x axis. Each assay was performed with 3 experimental runs except where indicated. The radial diffusion assay is reliable and gives consistent results when used with the purified or semipurified compositions of the invention. The assay method was patterned after that of Lee et al (23).

[4] = tested on: Pseudomonas aeroginosa PA01; assay: Radial diffusion assay for antibiotic activity against Pseudomonas aeroginosa PA01; details: Pseudomonas aeruginosa
Procedure: Staphylococcus aureus was strain RN6390, Pseudomonas aeruginosa was strain PA01, Escherichia coli was strain MC4100, Streptococcus faecalis was ATCC 8043 and Candida albicans was a clinical isolate from the Presbyterian Hospital. C. Radial diffusion assay for antibiotic activity against Pseudomonas aeroginosa PA01 A single colony of Pseudomonas aeroginosa PA01 is inoculated into trypticase soy broth and grown to mid-exponential phase (OD600−0.7). […] A 0.2 ml aliquot of this bacterial suspension (10^7CFU/ml) is added to 10 ml of autoclaved and cooled (to 42° C.) NaPB buffer, 1% w/v of low electroendosmosis type agarose (Sigma). After mixing the bacteria in, the agarose is poured in Lab-Tek square Petri dishes to form a uniform thick layer. Wells with a 2.7 mm diameter are punched in and filled with 4.5 ul of control or sample, the plates are incubated for 3 hours at 37° C., and overlaid with 10 ml of sterile agar maintained at 42° C. The overlay agar is 6% (w/v) TSB and 1% w/v Bacto-agar. After incubation for 18-24 hours at37° C., the diameter of the clear zone surrounding the wells containing an antibacterial agent is measured. Measurement of the antimicrobial activity of human hemoglobin, its heme-free α and β chains, CNBr-derived fragments of the α and β chains, and synthetic peptides derived therefrom were determined by radial diffusion assay and in some cases by plate assay. […] MIC is estimated by linear extrapolation of data points to an intercept with the x axis. Each assay was performed with 3 experimental runs except where indicated. The radial diffusion assay is reliable and gives consistent results when used with the purified or semipurified compositions of the invention. The assay method was patterned after that of Lee et al (23).

Escherichia coli MC4100 [5] = details: pH 7.4, radial diffusion
[6] = Candida albicans, Table 2 CNBr cleavage products, pH not given in table (method NaPB pH 5.5)
[7] = Escherichia coli, Table 2 CNBr cleavage products, pH not given in table (method NaPB pH 5.5)
[8] = Streptacoccus faecalis, Table 2 CNBr cleavage products, pH not given in table (method NaPB pH 5.5)
[9] = Candida albicans, pH 5.5, radial diffusion
[10] = Escherichia coli, pH 5.5, radial diffusion
[11] = Streptococcus faecalis, pH 5.5, radial diffusion

Q: Which “activity against C. albicans (in words)” value (Candida albicans; C. albicans) does the source give for “β-2: CNBr cleavage fragment of human hemoglobin β chain, residues 56-146, SEQ ID NO:2” here?
A: highly active

Q: And the “Minimum Inhibitory Concentration (MIC)” value (Candida albicans; [6])?
A: 25 µg/mL

Q: And the “activity against E. coli (in words)” value (Escherichia coli MC4100 [1]; E. coli)?
A: highly active

Q: What about the “Minimum Inhibitory Concentration (MIC)” value (Escherichia coli MC4100 [1]; [7]) of the same substance?
A: 5 µg/mL

Q: What about the “Minimum Inhibitory Concentration (MIC)” value [2, 8] of the same substance?
A: 8 µg/mL

Q: “α-1: CNBr cleavage fragment of human hemoglobin α chain, residues 1-32, SEQ ID NO:7” was tested. Which “Minimum Inhibitory Concentration (MIC)” value (Escherichia coli MC4100 [1]; [7]) did it give?
A: >100 µg/mL

Q: And the “Minimum Inhibitory Concentration (MIC)” value [2, 8]?
A: 100 µg/mL

Q: For “Hemoglobin: Human hemoglobin (MW=64,500), two α and two β chains with four heme groups; crude Hb purchased from Sigma Chemicals”, which “Minimum Inhibitory Concentration (MIC)” value (Candida albicans; [9]) is on record?
A: 50 to 70 µg/mL

Q: And the “Minimum Inhibitory Concentration (MIC)” value (Escherichia coli MC4100 [1]; [10])?
A: 1 to 5 µg/mL

Q: What about the “Minimum Inhibitory Concentration (MIC)” value [3] of the same substance?
A: 4 to 6 µg/mL

Q: And the “Minimum Inhibitory Concentration (MIC)” value ([4]; pH 5.5, radial diffusion)?
A: 5 µg/mL

Q: What about the “Minimum Inhibitory Concentration (MIC)” value ([4]; pH 7.4, radial diffusion) of the same substance?
A: 50 µg/mL

Q: And the “Minimum Inhibitory Concentration (MIC)” value [2, 11]?
A: 200 to 1000 µg/mL

Q: What about the “Minimum Inhibitory Concentration (MIC)” value (Escherichia coli MC4100 [5]) of the same substance?
A: 35 to 100 µg/mL

Q: Which “Minimum Inhibitory Concentration (MIC)” value (Candida albicans; [6]) does the source give for “α-3: CNBr cleavage fragment of human hemoglobin α chain, residues 77-141, SEQ ID NO:3” here?
A: 10 to 50 µg/mL

Q: What about the “Minimum Inhibitory Concentration (MIC)” value (Escherichia coli MC4100 [1]; [7]) of the same substance?
A: 5 to 8 µg/mL

Q: And the “Minimum Inhibitory Concentration (MIC)” value [2, 8]?
A: 7 µg/mL

Q: What does the source list for “α chains: Heme-free α chain of human hemoglobin, 141 amino acid residues, SEQ ID NO:10, separated by C4 reverse-phase HPLC”?
A: Minimum Inhibitory Concentration (MIC) (Candida albicans; [9]): 7 µg/mL; Minimum Inhibitory Concentration (MIC) (Escherichia coli MC4100 [1]; [10]): 1 to 2 µg/mL; Minimum Inhibitory Concentration (MIC) [3]: 300 µg/mL; Minimum Inhibitory Concentration (MIC) ([4]; pH 5.5, radial diffusion): 50 µg/mL; Minimum Inhibitory Concentration (MIC) [2, 11]: 3* μg/ml

Q: Which results are given for “β chains: Heme-free β chain of human hemoglobin, 146 amino acid residues, SEQ ID NO:1, separated by C4 reverse-phase HPLC”?
A: Minimum Inhibitory Concentration (MIC) (Candida albicans; [9]): >50 µg/mL; Minimum Inhibitory Concentration (MIC) (Escherichia coli MC4100 [1]; [10]): 1.5 to 5 µg/mL; Minimum Inhibitory Concentration (MIC) [3]: 10 µg/mL; Minimum Inhibitory Concentration (MIC) ([4]; pH 5.5, radial diffusion): 40 to 60 µg/mL; Minimum Inhibitory Concentration (MIC) [2, 11]: 20 µg/mL; Minimum Inhibitory Concentration (MIC) (Escherichia coli MC4100 [5]): 10 to 30 µg/mL

Q: With “β-1: CNBr cleavage fragment of human hemoglobin β chain, residues 1-55, SEQ ID NO:9” as the substance, how does the “Minimum Inhibitory Concentration (MIC)” value (Candida albicans; [6]) read?
A: 25 µg/mL

Q: And the “Minimum Inhibitory Concentration (MIC)” value (Escherichia coli MC4100 [1]; [7])?
A: >100 µg/mL

Q: What about the “Minimum Inhibitory Concentration (MIC)” value [2, 8] of the same substance?
A: >50 µg/mL

Q: For GNPKVKAHGKKVLGAFS [Peptide I], which “Minimum Inhibitory Concentration (MIC)” value (Candida albicans; 3 h, pH 5.5) is on record?
A: 10 µg/mL

Q: What about the “Minimum Inhibitory Concentration (MIC)” value (Escherichia coli MC4100 [1]; MC4100, pH 5.5) of the same substance?
A: 15 µg/mL

Q: For “α-2: CNBr cleavage fragment of human hemoglobin α chain, residues 33-76, SEQ ID NO:8”, which “Minimum Inhibitory Concentration (MIC)” value (Escherichia coli MC4100 [1]; [7]) is on record?
A: >100 µg/mL
